Each structure is given as a SMILES string. Structures can show the parent of a compound that is named as a salt.

Sequence of human recombinant TPK1 (P49841 whole entry): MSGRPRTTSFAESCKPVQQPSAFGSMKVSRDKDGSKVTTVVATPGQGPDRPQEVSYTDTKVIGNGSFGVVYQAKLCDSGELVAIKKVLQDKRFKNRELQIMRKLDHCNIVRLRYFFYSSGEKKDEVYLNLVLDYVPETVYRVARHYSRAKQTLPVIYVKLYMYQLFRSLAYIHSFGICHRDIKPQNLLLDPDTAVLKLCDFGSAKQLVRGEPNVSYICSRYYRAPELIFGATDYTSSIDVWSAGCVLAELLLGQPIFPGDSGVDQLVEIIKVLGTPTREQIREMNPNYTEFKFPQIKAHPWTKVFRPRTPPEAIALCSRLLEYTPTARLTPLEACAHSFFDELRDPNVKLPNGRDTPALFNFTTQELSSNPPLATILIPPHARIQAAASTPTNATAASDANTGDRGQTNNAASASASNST

The assay has as its target human recombinant TPK1 (Homo sapiens, UniProt P49841). The assay can be described thus: Inhibitory activity against P-GS1 phosphorylation by TPK1 (Kinase Glo luminescence). In kind it is biochemical. The settings on record: 7.5 μM P-GS1, 10 μM ATP, 25° C. for 16 hours, Kinase Glo Reagent luminescent signal. The protocol:
Inhibitory Activity of the Medicament of the Present Invention Against P-GS1 Phosphorylation by Bovine Cerebral TPK1
A mixture containing 100 mM HEPES-sodium hydroxide (pH 7.2), 1 mM magnesium acetate, 1 mM EGTA, 1 mM dithiothreitol (DTT), 0.02% Tween 20, 7.5 μM P-GS1, 10 μM ATP, human recombinant TPK1 and a compound shown in Table (a final mixture contained 1% DMSO deriving from a solution of a test compound prepared in the presence of 10% DMSO) was used as a reaction system. The phosphorylation was started by adding ATP, and the reaction was conducted at 25° C. for 16 hours. Then equal volume of Kinase Glo Reagent (Promega) was added to the mixture and luminescent signal from the mixture was measured. IC50 for each compound was calculated by setting the data of mixture without enzyme as 0% activity and that without compound as 100% activity.
Regarding `Cn1c(N2CCCO[C@H](c3cccc(C(N)=O)c3)C2)nc(-c2ccncn2)cc1=O` [Compound A049, (R)-2-[2-(3-aminocarbonylphenyl)-1,4-oxazepan-4-yl]-3-methyl-6-(pyrimidin-4-yl)pyrimidin-4(3H)-one], the IC50 was 70.6 nM.

Consider `CCC1CCOCCN1c1nc(-c2ccncn2)cc(=O)n1C` (stereo not drawn) [Compound A073, 3-methyl-2-(5-ethyl-1,4-oxazepan-4-yl)-6-(pyrimidin-4-yl)pyrimidin-4(3H)-one], for which the IC50 amounted to 195 nM.

Regarding `Cn1c(N2CCOC(c3ccc(F)cc3)CC2)nc(-c2ccncc2F)cc1=O` (stereo not drawn) [Compound A108, 2-[7-(4-fluorophenyl)-1,4-oxazepan-4-yl]-6-(3-fluoropyridin-4-yl)-3-methylpyrimidin-4(3H)-one], the IC50 is 24.6 nM.

Take `Cn1c(N2CCOC[C@@H](c3ccc(Br)cc3)C2)nc(-c2ccncn2)cc1=O` [Compound A074, (S)-2-[6-(4-bromophenyl)-1,4-oxazepan-4-yl]-3-methyl-6-(pyrimidin-4-yl)pyrimidin-4(3H)-one]: the IC50 came to 1.2 nM.

As to `Cn1c(N2CCCO[C@H](c3cccc(Br)c3)C2)nc(-c2ccncn2)cc1=O` [Compound A043, (R)-2-[2-(3-bromophenyl)-1,4-oxazepan-4-yl]-3-methyl-6-(pyrimidin-4-yl)pyrimidin-4(3H)-one], the IC50 was 51 nM.

For `Cn1c(N2CCCO[C@H](c3ccc(Br)cc3)C2)nc(-c2ccncc2F)cc1=O` [Compound A044, (R)-2-[2-(4-bromophenyl)-1,4-oxazepan-4-yl]-6-(3-fluoropyridin-4-yl)-3-methylpyrimidin-4(3H)-one], the IC50 was 52.4 nM.

`Cn1c(N2CCCOC(c3ccc(F)cc3)C2)nc(-c2ccncc2)cc1=O` (stereo not drawn) [Compound A035, 2-[2-(4-fluorophenyl)-1,4-oxazepan-4-yl]-3-methyl-6-(pyridin-4-yl)pyrimidin-4(3H)-one hydrochloride]: the IC50 worked out at 27 nM.

Regarding `Cn1c(N2CCCO[C@@H](c3cccc(C#N)c3)C2)nc(-c2ccncn2)cc1=O` [Compound A039, (S)-2-[2-(3-cyanophenyl)-1,4-oxazepan-4-yl]-3-methyl-6-(pyrimidin-4-yl)pyrimidin-4(3H)-one], the IC50 worked out at 31.9 nM.

For `Cn1c(N2CCCO[C@H](c3cccc(Br)c3)C2)nc(-c2ccncc2)cc1=O` [Compound A023, (R)-2-[2-(3-bromophenyl)-1,4-oxazepan-4-yl]-3-methyl-6-(pyridin-4-yl)pyrimidin-4(3H)-one], the IC50 stood at 12.7 nM.

As for `Cc1noc(-c2ccc(C3CCN(c4nc(-c5ccncc5F)cc(=O)n4C)CCO3)cc2)n1` (single isomer, unassigned; (-)) [Compound A113, (−)-2-[7-[4-(3-methyl-1,2,4-oxadiazol-5-yl)-phenyl]-1,4-oxazepan-4-yl]-6-(3-fluoropyridin-4-yl)-3-methylpyrimidin-4(3H)-one], the IC50 amounted to 30 nM.

Take `Cn1c(N2CCCO[C@@H](c3ccc(F)cc3)C2)nc(-c2ccncc2F)cc1=O` [Compound A011, (S)-2-[2-(4-fluorophenyl)-1,4-oxazepan-4-yl]-6-(3-fluoropyridin-4-yl)-3-methylpyrimidin-4(3H)-one]: the IC50 is 6 nM.

In the case of `Cc1nc(-c2ccc(C3CCN(c4nc(-c5ccncc5F)cc(=O)n4C)CCO3)cc2)no1` (single isomer, unassigned; (-)) [Compound A097, (−)-2-[7-[4-(5-methyl-1,2,4-oxadiazol-3-yl)-phenyl]-1,4-oxazepan-4-yl]-6-(3-fluoropyridin-4-yl)-3-methylpyrimidin-4(3H)-one], the 50% inhibitory concentration (IC50) was 11.3 nM.

`Cn1c(N2CCOCC(c3ccc(-c4ncon4)cc3)C2)nc(-c2ccncn2)cc1=O` (stereo not drawn) [Compound A082, 2-[6-[4-(1,2,4-oxadiazol-3-yl)-phenyl]-1,4-oxazepan-4-yl]-3-methyl-6-(pyrimidin-4-yl)-pyrimidin-4(3H)-one]: the IC50 was 13.2 nM.

With `Cn1c(N2CCCO[C@H](c3ccc(C(N)=O)cc3)C2)nc(-c2ccncc2)cc1=O` [Compound A062, (R)-2-[2-(4-aminocarbonylphenyl)-1,4-oxazepan-4-yl]-3-methyl-6-(pyridin-4-yl)pyrimidin-4(3H)-one], the IC50 came to 809 nM.

Take `Cc1noc(-c2cccc([C@H]3CN(c4nc(-c5ccncn5)cc(=O)n4C)CCCO3)c2)n1` [Compound A045, (S)-2-[2-[3-(3-methyl-1,2,4-oxadiazol-5-yl)phenyl]-1,4-oxazepan-4-yl]-3-methyl-6-(pyrimidin-4-yl)pyrimidin-4(3H)-one]: the IC50 turned out to be 57.1 nM.

With `Cc1noc(-c2ccc(C3COCCN(c4nc(-c5ccncn5)cc(=O)n4C)C3)cc2)n1` (stereo not drawn) [Compound A081, 2-[6-[4-(3-methyl-1,2,4-oxadiazol-5-yl)-phenyl]-1,4-oxazepan-4-yl]-3-methyl-6-(pyrimidin-4-yl)pyrimidin-4(3H)-one], the IC50 came to 12.9 nM.

Regarding `Cn1c(N2CCOC(c3ccc(-c4ncon4)cc3)CC2)nc(-c2ccncc2F)cc1=O` (single isomer, unassigned; (-)) [Compound A104, (−)-2-[7-[4-(1,2,4-oxadiazol-3-yl)-phenyl]-1,4-oxazepan-4-yl]-6-(3-fluoropyridin-4-yl)-3-methylpyrimidin-4(3H)-one], the IC50 was found to be 17.2 nM.

As for `Cn1c(N2CCCO[C@H](c3cccc(C#N)c3)C2)nc(-c2ccncc2F)cc1=O` [Compound A047], the IC50 amounted to 67.5 nM.

With `Cn1c(N2CCCO[C@@H](c3cccc(Br)c3)C2)nc(-c2ccncc2F)cc1=O` [Compound A008, (S)-2-[2-(3-bromophenyl)-1,4-oxazepan-4-yl]-6-(3-fluoropyridin-4-yl)-3-methylpyrimidin-4(3H)-one], the IC50 stood at 4.5 nM.

`Cc1noc(-c2ccc(C3CCN(c4nc(-c5ccncn5)cc(=O)n4C)CCO3)cc2)n1` (single isomer, unassigned; (+)) [Compound A103, (+)-2-[7-[4-(3-methyl-1,2,4-oxadiazol-5-yl)-phenyl]-1,4-oxazepan-4-yl]-3-methyl-6-(pyrimidin-4-yl)pyrimidin-4(3H)-one]: the IC50 is 16.3 nM.

Regarding `Cn1c(N2CCCOCC2)nc(-c2ccncn2)cc1=O` [Compound A002, 2-(1,4-oxazepan-4-yl)-3-methyl-6-(pyrimidin-4-yl)pyrimidin-4(3H)-one], the half-maximal inhibitory concentration (IC50) is 232 nM.

As for `Cc1noc(-c2ccc([C@H]3CN(c4nc(-c5ccncc5)cc(=O)n4C)CCCO3)cc2)n1` [Compound A036, (S)-2-[2-[4-(3-methyl-1,2,4-oxadiazol-5-yl)-phenyl]-1,4-oxazepan-4-yl]-3-methyl-6-(pyridin-4-yl)pyrimidin-4(3H)-one], the 50% inhibitory concentration (IC50) stood at 28.7 nM.

Turning to `Cn1c(N2CCOCC(c3ccc(-c4ncno4)cc3)C2)nc(-c2ccncn2)cc1=O` (stereo not drawn) [Compound A080, 2-[6-[4-(1,2,4-oxadiazol-5-yl)-phenyl]-1,4-oxazepan-4-yl]-3-methyl-6-(pyrimidin-4-yl)pyrimidin-4(3H)-one], the IC50 was 10.8 nM.

In the case of `Cn1c(N2CCCO[C@H](c3cccc(Br)c3)C2)nc(-c2ccncc2F)cc1=O` [Compound A025, (R)-2-[2-(3-bromophenyl)-1,4-oxazepan-4-yl]-6-(3-fluoropyridin-4-yl)-3-methylpyrimidin-4(3H)-one], the IC50 came out at 13.7 nM.

Take `Cn1c(N2CCOC(c3ccccc3F)CC2)nc(-c2ccncn2)cc1=O` (stereo not drawn) [Compound A105, 2-[7-(2-fluorophenyl)-1,4-oxazepan-4-yl]-3-methyl-6-(pyrimidin-4-yl)pyrimidin-4(3H)-one]: the IC50 came to 18.7 nM.

Take `Cc1nc(-c2ccc(C3COCCN(c4nc(-c5ccncc5F)cc(=O)n4C)C3)cc2)no1` (stereo not drawn) [Compound A083, 2-[6-[4-(5-methyl-1,2,4-oxadiazol-3-yl)-phenyl]-1,4-oxazepan-4-yl]-6-(3 fluoropyridin-4-yl)-3-methylpyrimidin-4(3H)-one]: the IC50 was found to be 14 nM.

With `C[C@@H]1COCCCN1c1nc(-c2ccncn2)cc(=O)n1C` [Compound A064, (R)-3-methyl-2-(3-methyl-1,4-oxazepan-4-yl)-6-(pyrimidin-4-yl)pyrimidin-4(3H)-one], the IC50 was 23.2 nM.

On to `COc1cccc(C2CCN(c3nc(-c4ccncc4F)cc(=O)n3C)CCO2)c1` (stereo not drawn) [Compound A093, 2-[7-(3-methoxyphenyl)-1,4-oxazepan-4-yl]-6-(3-fluoropyridin-4-yl)-3-methylpyrimidin-4(3H)-one], for which the IC50 came to 9.65 nM.

For `Cc1nc(-c2ccc([C@@H]3CN(c4nc(-c5ccncc5F)cc(=O)n4C)CCCO3)cc2)no1` [Compound A052, (R)-2-[2-[4-(5-methyl-1,2,4-oxadiazol-3-yl)-phenyl]-1,4-oxazepan-4-yl]-6-(3-fluoropyridin-4-yl)-3-methylpyrimidin-4(3H)-one], the IC50 came out at 92.1 nM.

In the case of `Cn1c(N2CCOC(c3ccc(Br)cc3)CC2)nc(-c2ccncc2F)cc1=O` (single isomer, unassigned; (+)) [Compound A114, (+)-2-(7-(4-bromophenyl)-1,4-oxazepan-4-yl)-6-(3-fluoropyridin-4-yl)-3-methylpyrimidin-4(3H)-one], the IC50 is 34.7 nM.

As for `CC1CN(c2nc(-c3ccncc3F)cc(=O)n2C)CCCO1` (stereo not drawn) [Compound A041, 2-(2-methyl-1,4-oxazepan-4-yl)-6-(3-fluoropyridin-4-yl)-3-methylpyrimidin-4(3H)-one], the IC50 was 34.8 nM.

For `CCC1CCOCCN1c1nc(-c2ccncc2F)cc(=O)n1C` (stereo not drawn) [Compound A072, 6-(3-fluoropyridin-4-yl)-3-methyl-2-(5-ethyl-1,4-oxazepan-4-yl)pyrimidin-4(3H)-one], the IC50 was found to be 65 nM.

Regarding `Cn1c(N2CCCO[C@H](c3ccc(Br)cc3)C2)nc(-c2ccncn2)cc1=O` [Compound A058, (R)-2-(2-(4-bromophenyl)-1,4-oxazepan-4-yl)-3-methyl-6-(pyrimidin-4-yl)pyrimidin-4(3H)-one], the IC50 stood at 221 nM.

These data come from patent publication US9108957B2 (MITSUBISHI TANABE PHARMA CORPORATION, priority 2009, dated 2015).
